Broadly, the mortality is the percentage killed.

Mortality data for 13 compounds are collected here from patent publication US5556859A, “N-(4-pyrimidinyl)amide pesticides” (DowElanco, priority 1994, dated 1996).

Test [1] deals with aster leafhopper (Macrosteles fascifrons). Put plainly: whole plant or invertebrate. The conditions noted are these: 24 h, read-out: percent mortality, ALH.
For test [2], the system named is peanut root knot nematode (Meloidogyne arenaria). Put plainly: whole plant or invertebrate. The conditions noted are these: in Arachis hypogaea, read-out: percent mortality, RKN.
Test [3] deals with German cockroach (Blattella germanicus). Put plainly: whole plant or invertebrate. The note with it: 240 h, read-out: percent mortality, GECR.
In test [4] the test system is tobacco budworm (Heliothis virescens). Description: Activity against tobacco budworm (TBW). It counts as in vivo. The note with it: 144 h, read-out: percent mortality, TBW. Put shortly: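 Eighteen to twenty Heliothis virescens eggs were placed on half-strength artificial diet and sprayed one hour later with compound at 400 and 50 ppm, in aqueous Tween 20 with acetone/EtOH. Cups were held 6 days at room temperature. Ratings were based on live and dead larval counts and live larval size.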

Test [5] deals with beet armyworm (Spodoptera exiqua). Put plainly: whole plant or invertebrate. The conditions noted are these: 144 h, read-out: percent mortality, BAW.
Test [6] relates to cotton aphid (Aphis gossypii). Description: whole plant or invertebrate. The note with it: 72 h, read-out: percent mortality, CA.
In test [7] the test system is Southern corn rootworm (Diabrotica undecimpuctata howardi Barber). Put plainly: whole plant or invertebrate. The note with it: in Zea mays, soil, read-out: percent mortality, SCRW.
For test [8], the system named is two spotted spider mite (Tetranychus urticae). Description: whole plant or invertebrate. The note with it: 72 h, read-out: percent mortality, TSSM.

For `CCc1nccc(NC(=O)Cc2ccc(Oc3ccc(C#N)cc3)cc2)n1` [Compound 12, 4-(4-cyanophenoxy)phenyl-N-(2-ethyl-4-pyrimidinyl)acetamide], the mortality at 400 ppm in test [1], in test [2], in test [3], in test [4], in test [5] and in test [6] was 100% throughout. Moreover, the mortality at 400 ppm in test [8] came to 100%. Further, in test [7], the mortality at 24 µg/g worked out at 100%.
For `CCc1nccc(NC(=O)Cc2ccc(Oc3ccc(C#N)cn3)cc2)n1` [Compound 13, 4-(5-cyano-2-pyridinyloxy)phenyl-N-(2-ethyl-4-pyrimidinyl)acetamide], the mortality at 400 ppm came to 0% in test [1]; 100% in test [2]; 60% in test [3]; 100% in test [4]; 100% in test [5]; 100% in test [6]. The mortality at 400 ppm in test [8] was determined as 100%. Moreover, the mortality at 24 µg/g in test [7] was 0%.
On to `CCc1nccc(NC(=O)Cc2ccc(Oc3ncc(Br)cn3)cc2)n1` [Compound 14, 4-(5-bromo-2-pyrimidinyloxy)phenyl-N-(2-ethyl-4-pyrimidinyl)acetamide], for which the mortality at 400 ppm in test [1] worked out at 100%; in test [2] it was 0%; in test [3], 0%; in test [4], 80%; in test [5] it was 100%; in test [6], 100%. Further, the mortality at 400 ppm in test [8] turned out to be 0%. Besides, in test [7], the mortality at 24 µg/g was 0%.
With `CCc1nccc(NC(=O)Cc2ccc(Oc3ccc([N+](=O)[O-])cc3)cc2)n1` [Compound 53, 4-(4-nitrophenoxy)phenyl-N-(2-ethyl-4-pyrimidinyl)acetamide], the mortality at 400 ppm in test [1] stood at 90%; in test [2], 100%; in test [3], 80%; in test [4], 100%; in test [5], 100%; in test [6] it was 100%. For the same compound, the mortality at 400 ppm in test [8] amounted to 100%. For the same compound, the mortality at 24 µg/g in test [7] amounted to 100%.
For the compound `O=C(Cc1ccc(Oc2ccc(F)cc2)cc1)Nc1ccnc(Cl)n1` [Compound 54, 4-(4-fluorophenoxy)phenyl-N-(2-chloro-4-pyrimidinyl)acetamide], the mortality at 400 ppm turned out to be 0% in test [1]; 0% in test [2]; 0% in test [3]; 60% in test [4]; 100% in test [5]; 0% in test [6]. Moreover, in test [8], the mortality at 400 ppm is 0%. The mortality at 24 µg/g in test [7] stood at 0%.
As to `CCc1nccc(NC(=O)Cc2ccc(OC(F)(F)C(F)F)cc2)n1` [Compound 55, 4-(1,1,2,2-tetrafluoroethoxy)phenyl-N-(2-ethyl-4-pyrimidinyl)acetamide], the mortality at 400 ppm in test [1] is 100%; in test [2], 100%; in test [3], 100%; in test [4], 80%; in test [5], 100%; in test [6], 100%. The mortality at 400 ppm in test [8] is 100%. The mortality at 24 µg/g in test [7] was found to be 100%.
On to `CC(C)(C)c1nccc(NC(=O)Cc2ccc(Oc3ccc(Cl)cc3)cc2)n1` [Compound 59, 4-(4-chlorophenoxy)phenyl-N-(2-(1,1-dimethylethyl)-4-pyrimidinyl)acetamide], for which the mortality at 400 ppm is 80% in test [1]; 0% in test [2]; 100% in test [3]; 100% in test [4]; 100% in test [5]; 100% in test [6]. In test [8], the mortality at 400 ppm stood at 0%. The mortality at 24 µg/g in test [7] is 100%.
On to `CC(C)(C)c1nccc(NC(=O)Cc2ccc(Oc3ccc(C#N)cc3)cc2)n1` [Compound 60, 4-(4-cyanophenoxy)phenyl-N-(2-(1,1-dimethylethyl)-4-pyrimidinyl)acetamide], for which the mortality at 400 ppm in test [1], in test [2], in test [3], in test [4], in test [5] and in test [6] was 100% in each case. Moreover, in test [8], the mortality at 400 ppm came to 100%. Besides, the mortality at 24 µg/g in test [7] came out at 100%.
On to `CC(C)(C)c1nccc(NC(=O)Cc2ccc(Oc3ccc(C(F)(F)F)cc3)cc2)n1` [Compound 62, 4-(4-trifluoromethylphenoxy)phenyl-N-(2-(1,1-dimethylethyl)-4-pyrimidinyl)acetamide], for which the mortality at 400 ppm in test [1] was found to be 80%; in test [2], 0%; in test [3] it was 100%; in test [4] it was 100%; in test [5], 100%; in test [6] it was 100%. Besides, in test [8], the mortality at 400 ppm is 100%. For the same compound, the mortality at 24 µg/g in test [7] stood at 100%.
Turning to `Cc1nccc(NC(=O)Cc2ccc(Oc3ccc(C(F)(F)F)cc3)cc2)n1` [Compound 63, 4-(4-trifluoromethylphenoxy)phenyl-N-(2-methyl-4-pyrimidinyl)acetamide], the mortality at 400 ppm in test [1] was found to be 60%; in test [2] it was 0%; in test [3], 100%; in test [4] it was 100%; in test [5], 100%; in test [6], 100%. In test [8], the mortality at 400 ppm is 100%. In test [7], the mortality at 24 µg/g was 0%.
For `O=C(Cc1ccc(Oc2ccc(C(F)(F)F)cc2)cc1)Nc1ccnc(C2CC2)n1` [Compound 67, 4-(4-trifluoromethylphenoxy)phenyl-N-(2-cyclopropyl-4-pyrimidinyl)acetamide], the mortality at 400 ppm was 60% in test [1]; 100% in test [2]; 100% in test [3]; 100% in test [4]; 100% in test [5]; 100% in test [6]. For the same compound, in test [8], the mortality at 400 ppm is 100%. The mortality at 24 µg/g in test [7] turned out to be 100%.
With `O=C(Cc1ccc(Oc2ccc(C(F)(F)F)cc2)cc1)Nc1ccncn1` [Compound 68, 4-(4-trifluoromethylphenoxy)phenyl-N-(4-pyrimidinyl)acetamide], the mortality at 400 ppm in test [1] came out at 0%; in test [2], 100%; in test [3] it was 0%; in test [4] it was 100%; in test [5] it was 0%; in test [6], 0%. In addition, the mortality at 400 ppm in test [8] came to 0%. Also, in test [7], the mortality at 24 µg/g was found to be 0%.
Regarding `COCc1nccc(NC(=O)Cc2ccc(Oc3ccc(C(F)(F)F)cc3)cc2)n1` [Compound 70, 4-(4-trifluoromethylphenoxy)phenyl-N-(2-(methoxymethyl)-4-pyrimidinyl)acetamide], the mortality at 400 ppm came to 0% in test [1]; 0% in test [2]; 100% in test [3]; 60% in test [4]; 100% in test [5]; 90% in test [6]. In addition, the mortality at 400 ppm in test [8] amounted to 80%. Also, the mortality at 24 µg/g in test [7] was determined as 0%.
